# PMC9298260, “An Immunomodulatory Peptide Dendrimer Inspired from Glatiramer Acetate” (Angewandte Chemie (International Ed. in English), 2021)
# Tests used:
# [1] = tested on: PBMC; assay type: cell-based, human; details: 100-12.5 µg/mL, 24 h, AlamarBlue further 12 h, fluorescence, normalized to untreated, n = 3
# From the text: To assess the activity requirements for 1 and 4, we performed a structure–activity relationship (SAR) study on the level of induced IL‐1Ra release measured by immunoassay, which we verified in selected cases at the mRNA level by RT‐qPCR (Figure 2). […]
# and centrifuged at the same conditions. PBMC collected from the interface were washed 3 times with supplemented RPMI.
# Monocytes purification using magnetic beads labelling Isolation KIT II
# Monocytes were purified from whole PBMC by negative selection, all procedures were carried out according to manufacturer protocol. Briefly, the non-monocytes were labeled with a cocktail of biotin-conjugated monoclonal antibodies as a primary labeling reagent. Then as a secondary labeling reagent were used anti-biotin microbeads. The mixture was run through the MACS column (MACS, Miltenyi Biotech) in the magnetic field of a MACS Separator (MACS, Miltenyi Biotech). […]
# supplemented with 10% heat-inactivated FBS, 50 μg/mL streptomycin, 50 U/mL penicillin, 2 mM L-glutamine, and 5 μg/mL. […] Then, plates were measured on a Tecan Infinite M1000 Pro plate reader at λex= 560 nm and λem= 590 nm and value normalized to the […]
# Figure S1. […] After incubation 50 µl of 50% AlamarBlue was added in supplemented medium for additional 12 h, then fluorescence was measured according to manufacture protocol. […]
# [2] = tested on: IL-1β; assay: IL-1β time profile in monocytes, RT-qPCR; assay type: cell-based, human; details: 50 µg/mL, inactivated and LPS (100 ng/mL) activated
# Experimental: For closer characterization, we selected dendrimer 1 due to its smaller size and the presence of a cysteine residue that could be used for labelling. […] Furthermore, dendrimer 1 induced the release of IL‐1Ra both with and without LPS activation, but in the latter case the effect was detected only after 18 h incubation (Figure S5e/f).
# Enriched monocytes after Percoll centrifugation (4×10^6 cells/3 mL well; 6-well plates) were preincubated for 1 h with or without compounds in RPMI-1640 medium supplemented with 10% heat-inactivated FBS, 50 μg/mL streptomycin, 50 U/mL penicillin, 2 mM L-glutamine, and then incubated for the indicated duration. After the incubation cells were collected, total RNA was extracted, reverse transcribed and analyzed by SYBR Green Master Mix. As a housekeeping gene was used Actin 5'-CAC TGG GGG CTA CTG GAC-3', 3'-AACATGGTGTTGGCAGAAACT-5', IL-1Ra 5'-TTCCTGTTCCATTCAGAGACG -3', 3'-CTTCTGGTTAACATCCCAGATTC -5'.
# Figure S5. Dendrimer 1 affected mRNA levels in both LPS -activated and resting monocytes.
# Monocytes 4 ×10^6 cells/3 mL in 6 well plates were incubated for indicated time with 50 µg/mL of 1 or without any treatment (NT) (a, c, e); or preincubated for 1 h with 100 ng/mL of LPS, and then with 50 µg/mL of 1 (b, d, f) or without any treatment (NT). […]
substance,measurement,setting,value
"(KA)8(KAK)4(KEKA)2KAKEAYCA-NH2 [compound 1, G3 peptide dendrimer]",viability of PBMC / cellular toxicity,[1],did not show measurable cellular toxicity
same,production of IL-1β,[2],significantly inhibited
